According to ChEMBL document CHEMBL4251561, “1,4-Naphthoquinones potently inhibiting P2X7 receptor activity” (Eur J Med Chem, 2018):
≈ marks a conversion by molar mass, not a printed value. Calls of active or inactive are those of the source. The rule behind the calls is not given here.

Assays:
[1] = biological target: T1, P2X purinoceptor 7 (Mus musculus, UniProt Q9Z1M0); assay: (§1) Antagonist activity at P2X7R in Swiss Webster mouse peritoneal macrophages assessed as inhibition of ATP-induced propidium iodide uptake preincubated for 10 mins followed by ATP induction measured after 25 mins by fluorescence assay
T1 sequence (Q9Z1M0 whole entry): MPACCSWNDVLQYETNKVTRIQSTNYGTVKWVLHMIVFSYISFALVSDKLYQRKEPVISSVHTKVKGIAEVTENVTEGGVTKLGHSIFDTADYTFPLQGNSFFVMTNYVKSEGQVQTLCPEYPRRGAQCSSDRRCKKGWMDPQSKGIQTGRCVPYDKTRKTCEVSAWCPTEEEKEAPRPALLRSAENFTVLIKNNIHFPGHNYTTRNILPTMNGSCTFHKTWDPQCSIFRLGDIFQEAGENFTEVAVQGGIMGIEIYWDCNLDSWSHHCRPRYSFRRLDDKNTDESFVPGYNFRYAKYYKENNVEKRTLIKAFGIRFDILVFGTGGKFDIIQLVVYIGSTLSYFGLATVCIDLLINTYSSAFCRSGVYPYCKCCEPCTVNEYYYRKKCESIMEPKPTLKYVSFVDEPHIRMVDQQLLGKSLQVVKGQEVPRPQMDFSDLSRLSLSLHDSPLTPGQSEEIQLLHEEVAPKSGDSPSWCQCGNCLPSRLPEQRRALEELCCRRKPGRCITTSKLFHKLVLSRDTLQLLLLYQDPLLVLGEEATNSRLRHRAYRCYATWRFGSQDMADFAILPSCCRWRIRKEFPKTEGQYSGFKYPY

[2] = system: Peritoneal macrophage; assay: Cytotoxicity against Swiss Webster mouse peritoneal macrophages at 100 uM after 72 hrs by resazurin reduction assay; type: cell-based
[3] = system: Peritoneal macrophage; assay: Antiinflammatory activity in IFNgamma-differentiated Swiss Webster mouse peritoneal macrophages assessed as inhibition of LPS-induced IL-1beta release at 500 nM preincubated for 15 mins followed by LPS challenge measured after 30 mins by sandwich ELISA; type: functional, cell-based
[4] = system: THP-1; assay: Antiinflammatory activity in LPS/IFNgamma-differentiated human THP1 cells assessed as inhibition of ATP-induced IL-1beta release after 30 mins by ELISA; type: functional, cell-based; conditions: THP-1, 0.5 h
[5] = system: P2X7R; assay: Selectivity index, ratio of CC50 for Swiss Webster mouse peritoneal macrophages to IC50 for antagonist activity at P2X7R in Swiss Webster mouse peritoneal macrophages; type: toxicity; conditions: read-out: Ratio CC50/IC50
[6] = Safety index, ratio of test compound CC50 to BGG CC50 for Swiss Webster mouse peritoneal macrophages by LDH release assay; type: ADME, cell-based, Peritoneal macrophage
[7] = system: Peritoneal macrophage; assay: Antiinflammatory activity in LPS/IFNgamma-differentiated Swiss Webster mouse peritoneal macrophages assessed as inhibition of ATP-induced IL-1beta release preincubated for 15 mins followed by ATP/LPS challenge measured after 30 mins by sandwich ELISA; type: functional, cell-based
[8] = biological target: T2, P2X purinoceptor 7 (Mus musculus) (UniProt Q9Z1M0); assay: as §1
T2 sequence (whole entry): T1 sequence (Q9Z1M0 whole entry)

[9] = Cytotoxicity against Swiss Webster mouse peritoneal macrophages by LDH release assay; type: cell-based, Peritoneal macrophage
[10] = Safety index, ratio of test compound CC50 to A740003 CC50 for Swiss Webster mouse peritoneal macrophages by LDH release assay; type: ADME, cell-based, Peritoneal macrophage
[11] = biological target: T3, P2X purinoceptor 7 (Homo sapiens, UniProt Q99572); assay: Antagonist activity at human P2X7R expressed in HEK293 cells assessed as inhibition of ATP-induced […] uptake preincubated for 10 mins followed by ATP induction measured after 25 mins by fluorescence assay; type: cell-based
T3 sequence (Q99572 whole entry): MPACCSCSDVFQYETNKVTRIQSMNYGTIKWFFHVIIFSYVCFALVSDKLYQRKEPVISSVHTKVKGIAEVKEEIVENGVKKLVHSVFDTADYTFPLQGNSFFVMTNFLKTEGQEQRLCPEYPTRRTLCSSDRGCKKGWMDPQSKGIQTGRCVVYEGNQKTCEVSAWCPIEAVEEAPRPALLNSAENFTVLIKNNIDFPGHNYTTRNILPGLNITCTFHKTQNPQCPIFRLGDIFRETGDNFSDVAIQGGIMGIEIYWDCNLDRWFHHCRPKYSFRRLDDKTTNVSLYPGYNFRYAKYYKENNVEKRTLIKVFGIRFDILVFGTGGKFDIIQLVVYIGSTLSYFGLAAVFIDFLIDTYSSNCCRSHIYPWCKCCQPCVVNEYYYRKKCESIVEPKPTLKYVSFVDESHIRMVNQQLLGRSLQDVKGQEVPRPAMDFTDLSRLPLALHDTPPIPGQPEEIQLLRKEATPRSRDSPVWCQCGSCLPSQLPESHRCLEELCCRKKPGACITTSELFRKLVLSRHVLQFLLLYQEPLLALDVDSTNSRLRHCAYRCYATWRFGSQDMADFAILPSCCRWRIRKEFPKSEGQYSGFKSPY

[12] = biological target: T2, P2X purinoceptor 7 (Mus musculus); assay: Antagonist activity at P2X7R in Swiss Webster mouse peritoneal macrophages assessed as inhibition of ionic current amplitude at 500 nM incubated for 300 secs in presence of ATP by patch clamp method
[13] = Kinetic solubility in pH 10 sodium hydroxide buffer; type: physicochemical; conditions: read-out: Kinetic_solubility
[14] = Intrinsic clearance in mouse liver microsomes assessed per mg of protein at 1 uM preincubated for 45 mins followed by NADPH addition; type: ADME, microsome; conditions: read-out: CLH
[15] = Kinetic solubility in pH 2 hydrochloride buffer; type: physicochemical; conditions: read-out: Kinetic_solubility
[16] = Apparent permeability across apical to basolateral side in human Caco2 cells at 100 uM after 60 mins by lucifer yellow fluorescence-based assay relative to propranolol; type: ADME, cell-based; conditions: caco-2, 1 h
[17] = Kinetic solubility in pH 4 citrate buffer; type: physicochemical; conditions: read-out: Kinetic_solubility
[18] = Kinetic solubility in pH 7.4 phosphate buffer; type: physicochemical; conditions: read-out: Kinetic_solubility
[19] = Intrinsic clearance in human liver microsomes assessed per mg of protein at 1 uM preincubated for 45 mins followed by NADPH addition; type: ADME, microsome; conditions: read-out: CLH
[20] = Apparent permeability across apical to basolateral side in human Caco2 cells at 100 uM after 60 mins by lucifer yellow fluorescence-based assay; type: ADME, cell-based; conditions: Caco-2
[21] = system: Mus musculus; assay: Antiinflammatory activity in ip dosed Swiss Webster mouse assessed as inhibition of carrageenan-induced paw edema preincubated for 30 mins followed by carrageenan challenge measured after 60 mins by plethysmometer; type: functional, organism-based
[22] = Octanol-PBS distribution co-efficient, log D of the compound at 25 mM at pH 7.4 after 2 hrs by shake flask method; type: physicochemical
[23] = system: Mus musculus; assay: Antiinflammatory activity in Swiss Webster mouse assessed as inhibition of carrageenan-induced paw edema at 10 mg/kg, ip preincubated for 30 mins followed by carrageenan challenge measured after 60 mins by plethysmometer; type: functional, organism-based

Row | SMILES | IC50 [1] [µM] | IC50 [4] [µM] | IC50 [7] [µM] | IC50 [11] [µM] | Activity [2] | selectivity ratio [5] | CC50 [9] [µM] | further results
1 | O=C1C=C(O)C(=O)c2ccccc21 [LAWSONE] | 75.5 |  |  |  | Toxic |  |  | 
2 | Cc1ccc(C2=C(O)C(=O)c3ccccc3C2=O)cc1 | 81.3 |  |  |  | Non-Toxic |  |  | 
3 | CCOc1ccc(Nc2ccc(/C(=C3C=C/C(=[N+](/CC)Cc4cccc(S(=O)(=O)[O-])c4)C=C/3C)c3ccc(N(CC)Cc4cccc(S(=O)(=O)O)c4)cc3C)cc2)cc1 [BRILLIANT BLUE G] | 15.2 | 19.3 | 19.8 | 0.536 |  | 5.73 | 87.3 | 
4 | N#Cc1ccc(C2=C(O)C(=O)c3ccccc3C2=O)cc1 | 45.8 |  |  |  | Non-Toxic |  |  | 
5 | O=C(O)Cc1ccccc1Nc1c(Cl)cccc1Cl |  |  |  |  |  |  |  | inhibition [23]: Active
6 | COc1ccc(C2=C(O)C(=O)c3ccccc3C2=O)cc1 | 80.1 |  |  |  | Non-Toxic |  |  | 
7 | O=C1C(O)=C(c2cccc(F)c2)C(=O)c2ccccc21 | 33.5 |  |  |  | Non-Toxic |  |  | 

Further compounds by falling IC50 [1], results first:

Row | IC50 [1] [µM] | IC50 [4] [µM] | IC50 [7] [µM] | IC50 [11] [µM] | SMILES | Activity [2] | selectivity ratio [5] | CC50 [9] [µM] | further results
8 | 3.17 |  |  |  | COc1cccc(C2=C(O)C(=O)c3ccccc3C2=O)c1 | Non-Toxic |  |  | 
9 | 0.897 | 0.689 | 0.723 | 0.109 | COc1ccc(CC(=O)NC(N/C(=N/C#N)Nc2cccc3ncccc23)C(C)(C)C)cc1OC (stereo unspecified) |  | 362 | 325 | inhibition [12]: Active
10 | 0.712 | 0.633 | 0.677 | 0.414 | O=C1C(O)=C(Br)C(=O)c2ccccc21 | Non-Toxic | 1180 | 844 | inhibition [3]: inactive; selectivity ratio [6]: 10 to 20; inhibition [8]: Dose-dependent effect; selectivity ratio [10]: 3 to 6
11 | 0.0484 | 0.0402 | 0.0489 | 0.0712 | O=C1C(O)=C(I)C(=O)c2ccccc21 | Non-Toxic | 50600 | 2020 | inhibition [12]: Active; inhibition [3]: inactive; solubility kinetic [13]: 300 µM (≈ 90 µg/mL); microsomal CLint at 1 µM [14]: 24.6 µL/min/mg; selectivity ratio [6]: 10 to 20; solubility kinetic [15]: 300 µM (≈ 90 µg/mL); Papp [16]: <= 50%; solubility kinetic [17]: 300 µM (≈ 90 µg/mL); inhibition [8]: Dose-dependent effect; solubility kinetic [18]: < 300 µM; microsomal CLint at 1 µM [19]: 31.1 µL/min/mg; Papp A→B at 1 h, 100 µM [20]: 54.2 ×10⁻⁶ cm/s; inhibition [21]: Dose-dependent effect; selectivity ratio [10]: 3 to 6; logD at 2 h, 25000 µM [22]: -0.11
12 | 0.0231 | 0.0098 | 0.0112 | 0.0224 | O=C1C(O)=C(c2ccccc2)C(=O)c2ccccc21 | Non-Toxic | 86400 | 1990 | inhibition [12]: Active; inhibition [3]: inactive; solubility kinetic [13]: < 500 µM; microsomal CLint at 1 µM [14]: 27.7 µL/min/mg; selectivity ratio [6]: 10 to 20; solubility kinetic [15]: < 500 µM; Papp [16]: 60%; solubility kinetic [17]: < 500 µM; inhibition [8]: Dose-dependent effect; solubility kinetic [18]: < 500 µM; microsomal CLint at 1 µM [19]: 36.8 µL/min/mg; Papp A→B at 1 h, 100 µM [20]: 61.1 ×10⁻⁶ cm/s; inhibition [21]: Dose-dependent effect; selectivity ratio [10]: 3 to 6; logD at 2 h, 25000 µM [22]: -0.39
